Experimental data as given in patent US20240343740A1, “MACROCYCLIC GLUCAGON-LIKE PEPTIDE 1 RECEPTOR AGONISTS” (Eli Lilly and Company, priority 2021, published 2024).

What was measured:
human GLP-1R [1] = target: T1, human GLP-1R (Homo sapiens, UniProt P43220); assay: Human GLP-1 Receptor HEK293 cell cAMP assay, 581 fmol/mg GLP-1R expression density; format: cell-based; set-up: expressed in transfected cells; host or cells: HEK293 clonal cell line; conditions: HEK293 cell line with 581 fmol/mg expression density of GLP-1R; for EC50: geometric mean, read-out: EC50 nM (SEM, n), intracellular cAMP response, relative EC50; for Emax: read-out: Emax % (SEM, n), intracellular cAMP response
In short: (§1)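 HEK293 clonal lines expressing human GLP-1R, 20-point compound curves, 30 min at 37° C in DMEM with 0.1% casein, 250 μM IBMX, 0.5% DMSO. cAMP by HTRF, converted via standard curve to % of maximal human GLP-1(7-36)NH2 response; relative EC50 and Emax from four-parameter logistic fit.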

human GLP-1R [2] = target: T1, human GLP-1R; assay: Human GLP-1 Receptor HEK293 cell cAMP assay, 104 fmol/mg GLP-1R expression density; format: cell-based; set-up: expressed in transfected cells; host or cells: HEK293 clonal cell line; conditions: HEK293 cell line with 104 fmol/mg expression density of GLP-1R; for EC50: geometric mean, read-out: EC50 nM (SEM, n), intracellular cAMP response, relative EC50; for Emax: read-out: Emax % (SEM, n), intracellular cAMP response
In short: as §1

[3] = percent of maximal response to GLP-1(7-36)NH2, arithmetic mean

T1 sequence (P43220 24-463): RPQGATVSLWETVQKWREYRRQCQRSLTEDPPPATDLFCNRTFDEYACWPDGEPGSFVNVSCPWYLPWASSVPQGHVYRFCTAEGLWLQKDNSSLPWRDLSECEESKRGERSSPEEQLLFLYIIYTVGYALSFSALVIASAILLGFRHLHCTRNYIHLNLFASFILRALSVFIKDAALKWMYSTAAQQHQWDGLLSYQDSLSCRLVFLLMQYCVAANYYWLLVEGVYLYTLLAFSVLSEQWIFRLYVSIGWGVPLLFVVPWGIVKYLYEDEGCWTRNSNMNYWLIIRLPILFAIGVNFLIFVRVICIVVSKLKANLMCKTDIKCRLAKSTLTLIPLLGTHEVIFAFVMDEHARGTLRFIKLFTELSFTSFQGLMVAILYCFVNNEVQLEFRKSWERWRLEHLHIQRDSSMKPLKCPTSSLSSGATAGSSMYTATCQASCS

`COCCOc1cc(C(=O)O)cc2c1nc(Cc1ccc3cc1COCC(F)(F)c1cc(C#N)ccc1COc1cccc-3n1)n2C[C@@H]1CCO1` [Example 50, (S)-2-((5^4-cyano-6,6-difluoro-3.8-dioxa-2(2,6)-pyridina-1(1,3),5(1,2)-dibenzenacyclonaphane-1^4-yl)methyl)-4-(2-methoxyethoxy)-1-(oxatan-2-ylmethyl)-1H-benzo[d]imidazole-6-carboxylic acid] was tested, and the EC50 (human GLP-1R [1]) was 38.1 nM, the Emax (human GLP-1R [1]; [3]) was 115% and the EC50 (human GLP-1R [2]) was 128 nM. The Emax (human GLP-1R [2]; [3]) was 82.8%.

`O=C(O)c1ccc2nc(Cc3ccc4cc3OCCCc3cc(-c5cnn(C6COC6)c5)ccc3COc3cccc-4n3)n(C[C@@H]3CCO3)c2c1` [Example 76, (S)-1-(Oxetan-2-ylmethyl)-2-((5^4-(1-(oxetan-3-yl)-1H-pyrazol-4-yl)-3,9-dioxa-2(2,6)-pyridina-1(1,3),5(1,2)-dibenzenacyclononaphane-1^4-yl)methyl)-1H-benzo[d]imidazole-6-carboxylic acid] gave an EC50 (human GLP-1R [1]) of 102 nM, an Emax (human GLP-1R [1]; [3]) of 99.9% and an EC50 (human GLP-1R [2]) of 359 nM. For the same compound, the Emax (human GLP-1R [2]; [3]) was 78.2%.

Work on `COc1cc(C(=O)O)cc2c1nc(Cc1cc(C)c3cc1OCCCc1cc(F)ccc1COc1cccc-3n1)n2C[C@@H]1CCO1` [Example 22, (S)-4-Methoxy-2-((1^6-methyl-5^4-(fluoro)-3,9-dioxa-2(2,6)-pyridina-1(1,3),5(1,2)-dibenzenacyclononaphane-1^4-yl)methyl)-1-(oxetan-2-ylmethyl)-1H-benzo[d]imidazole-6-carboxylic acid] yielded an EC50 (human GLP-1R [1]) of 2.86 nM, an Emax (human GLP-1R [1]; [3]) of 112% and an EC50 (human GLP-1R [2]) of 10.6 nM. The Emax (human GLP-1R [2]; [3]) was 80.9%.

For `O=C(O)c1ccc2nc(Cc3ccc4cc3OCCCc3cc(-c5ccc(CO)cc5)ccc3COc3cccc-4n3)n(C[C@@H]3CCO3)c2c1` [Example 39, (S)-2-((5^4-(4-(Hydroxymethyl)phenyl)-3,9-dioxa-2(2,6)-pyridina-1(1,3),5(1,2)-dibenzenacyclononaphane-1^4-yl)methyl)-1-(oxetan-2-ylmethyl)-1H-benzo[d]imidazole-6-carboxylic acid], the EC50 (human GLP-1R [1]) was 244 nM, the Emax (human GLP-1R [1]; [3]) was 99% and the EC50 (human GLP-1R [2]) was 762 nM. It also gave an Emax (human GLP-1R [2]; [3]) of 76.6%.

`COCCOc1cc(C(=O)O)cc2c1nc(Cc1cc(F)c3cc1COCCc1cc(ccc1C#N)COc1cccc-3n1)n2C[C@@H]1CCO1` [Example 58, (S)-2-((5^4-Cyano-1^6-fluoro-3,8-dioxa-2(2,6)-pyridina-1,5(1,3)-dibenzenacyclononaphane-1^4-yl)methyl)-4-(2-methoxyethoxy)-1-(oxetan-2-ylmethyl)-1H-benzo[d]imidazole-6-carboxylic acid] showed an EC50 (human GLP-1R [1]) of 0.633 nM, an Emax (human GLP-1R [1]; [3]) of 109% and an EC50 (human GLP-1R [2]) of 1.62 nM. It also gave an Emax (human GLP-1R [2]; [3]) of 90%.

`CN1CCC(Oc2cc(C(=O)O)cc3c2nc(Cc2ccc4cc2OCCCc2cc(C#N)ccc2COc2cccc-4n2)n3C[C@@H]2CCO2)C1` (stereo partly drawn) [Example 59, 2-((5^4-Cyano-3,9-dioxa-2(2,6)-pyridina-1(1,3),5(1,2)-dibenzenacyclononaphane-1^4-yl)methyl)-4-((1-methylpyrrolidin-3-yl)oxy)-1-(((S)-oxetan-2-yl)methyl)-1H-benzo[d]imidazole-6-carboxylic acid] gave an EC50 (human GLP-1R [1]) of 262 nM, an Emax (human GLP-1R [1]; [3]) of 90.9% and an EC50 (human GLP-1R [2]) of 515 nM. It also gave an Emax (human GLP-1R [2]; [3]) of 48.4%.

`COc1cc(C(=O)O)cc2c1nc(Cc1cc(C)c3cc1OCCCc1nc(C(F)(F)F)ccc1COc1cccc-3n1)n2C[C@@H]1CCO1` [Example 26, (S)-4-Methoxy-2-((1^6-methyl-5^6-(trifluoromethyl)-3,9-dioxa-2(2,6),5(3,2)-dipyridina-1(1,3)-benzenacyclononaphane-1^4-yl)methyl)-1-(oxetan-2-ylmethyl)-1H-benzo[d]imidazole-6-carboxylic acid; 1,3,4,6,7,8-hexahydro-2H-pyrimido[1,2-a]pyrimidine] was tested, and the EC50 (human GLP-1R [1]) was 1.66 nM, the Emax (human GLP-1R [1]; [3]) was 116% and the EC50 (human GLP-1R [2]) was 5.64 nM. For the same compound, the Emax (human GLP-1R [2]; [3]) was 91.3%.

For `COc1cc(C(=O)O)cc2c1nc(Cc1cc(C)c3cc1OCCCc1cnccc1COc1cccc-3n1)n2C[C@@H]1CCO1` [Example 27, (S)-4-Methoxy-2-((1^6-methyl-3,9-dioxa-2(2,6),5(4,3)-dipyridina-1(1,3)-benzenacyclononaphane-1^4-yl)methyl)-1-(oxetan-2-ylmethyl)-1H-benzo[d]imidazole-6-carboxylic acid], the EC50 (human GLP-1R [1]) was 50.7 nM, the Emax (human GLP-1R [1]; [3]) was 107% and the EC50 (human GLP-1R [2]) was 165 nM. For the same compound, the Emax (human GLP-1R [2]; [3]) was 82.5%.

With `COCCOc1cc(C(=O)O)cc2c1nc(Cc1ccc3cc1COCCc1cc(C#N)ccc1COc1ccc(F)c-3n1)n2C[C@@H]1CCO1` [Example 49, (S)-2-((5^4-Cyano-2^3-fluoro-3,8-dioxa-2(2,6)-pyridina-1(1,3),5(1,2)-dibenzenacyclononaphane-1^4-yl)methyl)-4-(2-methoxyethoxy)-1-(oxetan-2-ylmethyl)-1H-benzo[d]imidazole-6-carboxylic acid] the EC50 (human GLP-1R [1]) was 2.33 nM, the Emax (human GLP-1R [1]; [3]) was 112% and the EC50 (human GLP-1R [2]) was 8.39 nM. For the same compound, the Emax (human GLP-1R [2]; [3]) was 85.5%.

`Nc1cc(-c2ccc3c(c2)CCCOc2cc(ccc2Cc2nc4ccc(C(=O)O)cc4n2C[C@@H]2CCO2)-c2cccc(n2)OC3)ccn1` [Example 78, (S)-2-((5^4-(2-Aminopyridin-4-yl)-3,9-dioxa-2(2,6)-pyridina-1(1,3),5(1,2)-dibenzenacyclononaphane-1^4-yl)methyl)-1-(oxetan-2-ylmethyl)-1H-benzo[d]imidazole-6-carboxylic acid] gave an EC50 (human GLP-1R [1]) of 95.8 nM, an Emax (human GLP-1R [1]; [3]) of 99.8% and an EC50 (human GLP-1R [2]) of 248 nM. For the same compound, the Emax (human GLP-1R [2]; [3]) was 74.1%.

Work on `Cn1ccc(-c2ccc3c(c2)CCCOc2cc(ccc2Cc2nc4ccc(C(=O)O)cc4n2C[C@@H]2CCO2)-c2cccc(n2)OC3)cc1=O` [Example 79, (S)-2-((5^4-(1-Methyl-2-oxo-1,2-dihydropyridin-4-yl)-3,9-dioxa-2(2,6)-pyridina-1(1,3),5(1,2)-dibenzenacyclononaphane-1^4-yl)methyl)-1-(oxetan-2-ylmethyl)-1H-benzo[d]imidazole-6-carboxylic acid] yielded an EC50 (human GLP-1R [1]) of 369 nM, an Emax (human GLP-1R [1]; [3]) of 34.7% and an EC50 (human GLP-1R [2]) of 648 nM. The Emax (human GLP-1R [2]; [3]) was 9.53%.

`COCCOc1cc(C(=O)O)cc2c1nc(Cc1ccc3cc1COCCc1nc(ccc1C#N)COc1cccc-3n1)n2C[C@@H]1CCO1` [Example 46, (S)-2-((5^5-Cyano-3,8-dioxa-2,5(2,6)-dipyridina-1(1,3)-benzenacyclononaphane-1^4-yl)methyl)-4-(2-methoxyethoxy)-1-(oxetan-2-ylmethyl)-1H-benzo[d]imidazole-6-carboxylic acid] was tested, and the EC50 (human GLP-1R [1]) was 7.23 nM, the Emax (human GLP-1R [1]; [3]) was 107% and the EC50 (human GLP-1R [2]) was 24.6 nM. For the same compound, the Emax (human GLP-1R [2]; [3]) was 91.7%.

Compound `N#Cc1ccc2c(c1)CCCOc1cc(c(F)cc1Cc1nc3ccc(C(=O)O)cc3n1C[C@@H]1CCO1)-c1cccc(n1)NC2` [Example 8, (S)-2-((5^4-Cyano-1^6-fluoro-9-oxa-3-aza-2(2,6)-pyridina-1(1,3),5(1,2)-dibenzenacyclononaphane-1^4-yl)methyl)-1-(oxetan-2-ylmethyl)-1H-benzo[d]imidazole-6-carboxylic acid] has an EC50 (human GLP-1R [1]) of 168 nM, an Emax (human GLP-1R [1]; [3]) of 90.5% and an EC50 (human GLP-1R [2]) of 815 nM. It also gave an Emax (human GLP-1R [2]; [3]) of 81.5%.

In the case of `CCn1cncc1Cn1c(Cc2ccc3cc2OCCCc2cc(C#N)ccc2COc2cccc-3n2)nc2ccc(C(=O)O)cc21` [Example 11, 2-((5^4-cyano-3,9-dioxa-2(2,6)-pyridina-1(1,3),5(1,2)-dibenzenacyclononaphane-1^4-yl)methyl)-1-((1-ethyl-1H-imidazol-5-yl)methyl)-1H-benzo[d]imidazole-6-carboxylic acid], the EC50 (human GLP-1R [1]) is reported as 35 nM, the Emax (human GLP-1R [1]; [3]) is reported as 92% and the EC50 (human GLP-1R [2]) is reported as 194 nM. It also gave an Emax (human GLP-1R [2]; [3]) of 81%.

With “(S)-2-((5^4-Cyano-1^6,2^3-difluoro-3,8-dioxa-2(2,6)-pyridina-1(1,3),5(1,2)-dibenzenacyclononaphane-1^4-yl)methyl)-4-(2-methoxyethoxy)-1-(oxetan-2-ylmethyl)-1H-benzo[d]imidazole-6-carboxylic acid [Example 60]” the EC50 (human GLP-1R [1]) was 0.938 nM, the “Emax % (SEM, n), intracellular cAMP response” value (human GLP-1R [1]; [3]) was 109% and the EC50 (human GLP-1R [2]) was 2.99 nM. For the same compound, the “Emax % (SEM, n), intracellular cAMP response” value (human GLP-1R [2]; [3]) was 87.9%.

Compound `COCCOc1cc(C(=O)O)cc2c1nc(Cc1ccc3cc1COCCc1cc(C(F)(F)F)ncc1COc1cccc-3n1)n2C[C@@H]1CCO1` [Example 52, (S)-4-(2-Methoxyethoxy)-1-(oxetan-2-ylmethyl)-2-((5^6-(trifluoromethyl)-3,8-dioxa-2(2,6),5(3,4)-dipyridina-1(1,3)-benzenacyclononaphane-1^4-yl)methyl)-1H-benzo[d]imidazole-6-carboxylic acid] has an EC50 (human GLP-1R [1]) of 58.4 nM, an Emax (human GLP-1R [1]; [3]) of 108% and an EC50 (human GLP-1R [2]) of 153 nM. It also gave an Emax (human GLP-1R [2]; [3]) of 84.3%.

Work on `N#Cc1ccc2c(c1)CCCOc1cc(ccc1Cc1nc3ccc(C(=O)O)cc3n1C[C@@H]1CCO1)-c1cccc(n1)OC2` [Example 4, (S)-2-((5^4-Cyano-3,9-dioxa-2(2,6)-pyridina-1(1,3),5(1,2)-dibenzenacyclononaphane-1^4-yl)methyl)-1-(oxetan-2-ylmethyl)-1H-benzo[d]imidazole-6-carboxylic acid] yielded an EC50 (human GLP-1R [1]) of 90.6 nM, an Emax (human GLP-1R [1]; [3]) of 99.2% and an EC50 (human GLP-1R [2]) of 384 nM. For the same compound, the Emax (human GLP-1R [2]; [3]) was 78.7%.
